Values quoted from earlier work, collected in publication PMC11839696 (European Journal of Nuclear Medicine and Molecular Imaging, 2024).

Test system: prostate cancer tissue
Design: AUC of the ROC analysis: unit not given beside the values

Structure (SMILES): O=C(O)CC[C@H](NC(=O)N[C@@H](CCCCNC(=O)[C@H](Cc1ccc2ccccc2c1)NC(=O)c1ccc(CNC(=O)[C@H](CCC(=O)O)NC(=O)[C@H](CCC(=O)O)NC(=O)c2ccc([18F])nc2)cc1)C(=O)O)C(=O)O [[^18F]-PSMA-1007]
- sensitivity (at 75 CPM): 65.1%
- specificity (at 75 CPM): 87%
- optimal threshold for determining PCa (five patients, 113 cores): 75 CPM
- AUC of the ROC analysis (five patients, 113 cores, within 3 h after injection): 0.81
